Target: T1, hNPY1R (Homo sapiens, UniProt P25929)
T1 construct: SK-N-MC cells endogenously expressing the NPY1R receptor; endogenous in cells; host or cells: SK-N-MC cells (crude membrane fractions)
T1 sequence (P25929 1-384): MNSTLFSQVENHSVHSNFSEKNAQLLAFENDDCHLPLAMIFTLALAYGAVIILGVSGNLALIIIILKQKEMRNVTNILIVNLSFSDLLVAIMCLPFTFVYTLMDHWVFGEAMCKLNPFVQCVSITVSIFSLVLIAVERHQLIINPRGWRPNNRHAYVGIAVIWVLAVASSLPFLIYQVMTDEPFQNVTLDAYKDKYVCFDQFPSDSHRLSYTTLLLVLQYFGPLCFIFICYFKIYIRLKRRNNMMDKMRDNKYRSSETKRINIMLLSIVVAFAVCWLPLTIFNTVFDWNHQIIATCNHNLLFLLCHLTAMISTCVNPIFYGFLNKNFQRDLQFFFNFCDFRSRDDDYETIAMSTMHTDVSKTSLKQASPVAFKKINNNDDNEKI
Experiment: NPY1R binding assay: SK-N-MC membranes, [125I]-Peptide YY (human) competition
Conditions: data obtained after 60 minutes at 37° C.; SK-N-MC membranes; [125I]-Peptide YY 0.05 nM; read-out: hNPY1R binding Ki* †
Procedure: Crude membrane fractions are prepared from SK-N-MC cells endogenously expressing the NPY1R receptor. The cells are grown to 85-100% confluence on standard tissue culture dishes in Eagle's Minimum Essential Medium supplemented with 10% dialyzed FBS. To prepare membranes, cells are scraped and collected in 1× Dulbecco's phosphate buffered saline and then pelleted at 1000 RPM's. The cell pellet is reconstituted in membrane preparation buffer (20 mM HEPES, 6 mM MgCl2 and 1 mM EGTA, protease inhibitor tablets, pH 7.4) and placed in a cell disruption vessel at 1000 PSI for 30 minutes on ice. The pressurized contents are then released and spun down at 1000 RPMs and the supernatant is collected and further centrifuged at 15,000 RPMs to pellet the membranes. The membrane pellet is resuspended in membrane preparation buffer, snap frozen and stored at −80° C. for later use.
[…] Assay contents are then filtered through unifilter GF/C microplates and washed with 9×400 μl of cold wash buffer (25 mM HEPES, 5 mM MgCl2, 1 mM CaCl2), 500 mM NaCl, 0.1% Tween-20, pH 7.4). Assay plates are read using a Top Count NXT and Ki values for compounds are determined using a GraphPad Prism 6 non-linear regression analysis.

Structure (SMILES) | Ki
N=C(N)NCCC[C@@H](NC(=O)C(c1ccccc1)c1cccc(OCCOCCOCCOCCOCCNC(=O)CN2CCN(CC(=O)O)CCN(CC(=O)O)CCN(CC(=O)O)CC2)c1)C(=O)NCc1ccc(CNC(N)=O)cc1 (stereo partly drawn) [Compound 113A, 2,2′,2″-(10-(17-(3-(2-(((R)-5-guanidino-1-oxo-1-((4-(ureidomethyl)benzyl)amino)pentan-2-yl)amino)-2-oxo-1-phenylethyl)phenoxy)-2-oxo-6,9,12,15-tetraoxa-3-azaheptadecyl)-1,4,7,10-tetraazacyclododecane-1,4,7-triyl)triacetic acid—2,2,2-trifluoroacetic acid (1/1)] | > 0.1 µM
CCC(=O)NCCNC(=O)/N=C(/N)NCCC[C@@H](NC(=O)C(c1ccccc1)c1cccc(OCCOCCOCCOCCNC(=O)CN2CCN(CC(=O)O)CCN(CC(=O)O)CCN(CC(=O)O)CC2)c1)C(=O)NCc1ccc(O)cc1 (stereo partly drawn) [Compound 104, 2,2′,2″-(10-(14-(3-((4R,Z)-9-amino-4-((4-hydroxybenzyl)carbamoyl)-2,11,16-trioxo-1-phenyl-3,8,10,12,15-pentaazaoctadec-9-en-1-yl)phenoxy)-2-oxo-6,9,12-trioxa-3-azatetradecyl)-1,4,7,10-tetraazacyclododecane-1,4,7-triyl)triacetic acid] | < 0.01 µM
CCC(=O)NCCNC(=O)/N=C(/N)NCCC[C@@H](NC(=O)C(c1ccccc1)c1cccc(OCCCCNC(=O)[C@H](N)CCCCNC(=O)CN2CCN(CC(=O)O)CCN(CC(=O)O)CCN(CC(=O)O)CC2)c1)C(=O)NCc1ccc(O)cc1 (single isomer, unassigned) [Compound 109B] | < 0.01 µM
CCC(=O)NCCNC(=O)/N=C(/N)NCCC[C@@H](NC(=O)C(c1ccccc1)c1cccc(OCCCCNC(=O)[C@H](CS(=O)(=O)O)NC(=O)CN2CCN(CC(=O)O)CCN(CC(=O)O)CCN(CC(=O)O)CC2)c1)C(=O)NCc1ccc(O)cc1 (single isomer, unassigned) [Compound 107B] | 0.01 to 0.1 µM
CCC(=O)NCCNC(=O)/N=C(/N)NCCC[C@@H](NC(=O)C(c1ccccc1)c1ccc(NC(=O)CCOCCOCCOCCOCCNC(=O)CN2CCN(CC(=O)O)CCN(CC(=O)O)CCN(CC(=O)O)CC2)cc1)C(=O)NCc1ccc(O)cc1 (single isomer, unassigned) [Compound 102A] | 0.01 to 0.1 µM
CCC(=O)NCCNC(=O)/N=C(/N)NCCC[C@@H](NC(=O)C(c1ccccc1)c1cccc(OCCOCCOCCNC(=O)CN2CCN(CC(=O)O)CCN(CC(=O)O)CCN(CC(=O)O)CC2)c1)C(=O)NCc1ccc(O)cc1 (stereo partly drawn) [Compound 105, 2,2′,2″-(10-(2-((2-(2-(2-(3-((4R,Z)-9-amino-4-((4-hydroxybenzyl)carbamoyl)-2,11,16-trioxo-1-phenyl-3,8,10,12,15-pentaazaoctadec-9-en-1-yl)phenoxy)ethoxy)ethoxy)ethyl)amino)-2-oxoethyl)-1,4,7,10-tetraazacyclododecane-1,4,7-triyl)triacetic acid] | < 0.01 µM
CCC(=O)NCCNC(=O)/N=C(/N)NCCC[C@@H](NC(=O)C(c1ccccc1)c1cccc(OCCCCNc2c(NCCNC(=O)CN3CCN(CC(=O)O)CCN(CC(=O)O)CCN(CC(=O)O)CC3)c(=O)c2=O)c1)C(=O)NCc1ccc(O)cc1 (single isomer, unassigned) [Compound 111B] | < 0.01 µM
CCC(=O)NCCNC(=O)/N=C(/N)NCCC[C@@H](NC(=O)C(c1ccccc1)c1cccc(OCCCCNC(=O)CC[C@@H](NC(=O)CN2CCN(CC(=O)O)CCN(CC(=O)O)CCN(CC(=O)O)CC2)C(=O)O)c1)C(=O)NCc1ccc(O)cc1 (single isomer, unassigned) [Compound 110B] | < 0.01 µM
CCC(=O)NCCNC(=O)/N=C(/N)NCCC[C@@H](NC(=O)C(c1ccccc1)c1cccc(OCCOCCOCCOCCOCCNC(=O)CN2CCN(CC(=O)O)CCN(CC(=O)O)CCN(CC(=O)O)CC2)c1)C(=O)NCc1ccc(CNC(N)=O)cc1 (single isomer, unassigned) [Compound 114A] | 0.01 to 0.1 µM

Same assay, conditions: data obtained after 120 minutes at rt; SK-N-MC membranes; [125I]-Peptide YY; read-out: hNPY.R binding Ki* ††

Structure (SMILES) | Ki
CCC(=O)NCCNC(=O)/N=C(/N)NCCC[C@@H](NC(=O)C(c1ccccc1)c1cccc(OCCCCNC(=O)[C@@H](CCCN)NC(=O)CCNC(=O)CN2CCN(CC(=O)O)CCN(CC(=O)O)CCN(CC(=O)O)CC2)c1)C(=O)NCc1ccc(O)cc1 (single isomer, unassigned) [Compound 147B] | < 0.01 µM
CCC(=O)NCCNC(=O)/N=C(/N)NCCC[C@@H](NC(=O)C(c1ccccc1)c1cccc(OCCCCNC(=O)[C@@H](Cc2ccc3ccccc3c2)NC(=O)CCNC(=O)CN2CCN(CC(=O)O)CCN(CC(=O)O)CCN(CC(=O)O)CC2)c1)C(=O)NCc1ccc(O)cc1 (stereo partly drawn) [Compound 150, 2,2′,2″-(10-(2-((3-(((2R)-1-((4-(3-((4R,Z)-9-amino-4-((4-hydroxybenzyl)carbamoyl)-2,11,16-trioxo-1-phenyl-3,8,10,12,15-pentaazaoctadec-9-en-1-yl)phenoxy)butyl)amino)-3-(naphthalen-2-yl)-1-oxopropan-2-yl)amino)-3-oxopropyl)amino)-2-oxoethyl)-1,4,7,10-tetraazacyclododecane-1,4,7-triyl)triacetic acid] | < 0.01 µM
CCC(=O)NCCNC(=O)/N=C(/N)NCCC[C@@H](NC(=O)C(c1ccccc1)c1cccc(OCCCCNC(=O)CCNC(=O)CN2CCN(CC(=O)O)CCN(CC(=O)O)CCN(CC(=O)O)CC2)c1)C(=O)NCc1c(F)cc(O)cc1F (single isomer, unassigned) [Compound 162B] | < 0.01 µM
CCC(=O)NCCNC(=O)/N=C(/N)NCCC[C@@H](NC(=O)C(c1ccccc1)c1cccc(OCCCCNC(=O)[C@@H](CO)NC(=O)CCNC(=O)CN2CCN(CC(=O)O)CCN(CC(=O)O)CCN(CC(=O)O)CC2)c1)C(=O)NCc1c(F)cc(O)cc1F (single isomer, unassigned) [Compound 165B] | < 0.01 µM
CCNC(=O)/N=C(/N)NCCC[C@@H](NC(=O)C(c1ccccc1)c1cccc(OCCCCNC(=O)[C@@H](Cc2ccc(-c3ccccc3)cc2)NC(=O)[C@@H](CN)NC(=O)CN2CCN(CC(=O)O)CCN(CC(=O)O)CCN(CC(=O)O)CC2)c1)C(=O)NCc1ccc(O)cc1 (single isomer, unassigned) [Compound 148B] | < 0.01 µM
CCC(=O)NCCNC(=O)/N=C(/N)NCCC[C@@H](NC(=O)C(c1ccccc1)c1ccc(NCCCNC(=O)[C@H](N)CCCNC(=O)CN2CCN(CC(=O)O)CCN(CC(=O)O)CCN(CC(=O)O)CC2)cc1)C(=O)NCc1ccc(O)cc1 (single isomer, unassigned) [Compound 135B] | < 0.01 µM
CCC(=O)NCCNC(=O)/N=C(/N)NCCC[C@@H](NC(=O)C(c1ccccc1)c1cccc(OCCCCNC(=O)[C@@H](CCCNC(=N)N)NC(=O)CCNC(=O)CN2CCN(CC(=O)O)CCN(CC(=O)O)CCN(CC(=O)O)CC2)c1)C(=O)NCc1ccc(O)cc1 (single isomer, unassigned) [Compound 141B] | < 0.01 µM
CCCCCCCCCCCCCCCC(=O)N[C@@H](CCC(=O)N[C@@H](CCCCNC(=O)CN1CCN(CC(=O)O)CCN(CC(=O)O)CCN(CC(=O)O)CC1)C(=O)NCCCCOc1cccc(C(C(=O)N[C@H](CCCN/C(N)=N\C(=O)NCCNC(=O)CC)C(=O)NCc2ccc(O)cc2)c2ccccc2)c1)C(=O)O (stereo partly drawn) [Compound 122, (2S)-4-{[(1S)-1-({4-[3-({[(1R)-4-{[(Z)-amino({[(2-propanamidoethyl)-carbamoyl]imino})methyl]amino}-1-{[(4-hydroxyphenyl)methyl]carbamoyl}butyl]-carbamoyl}(phenyl)methyl)phenoxy]butyl}carbamoyl)-5-{2-[4,7,10-tris(carboxymethyl)-1,4,7,10-tetraazacyclododecan-1-yl]acetamido}pentyl]carbamoyl}-2-hexadecanamidobutanoic acid] | < 0.01 µM
CCC(=O)NCCNC(=O)/N=C(/N)NCCC[C@@H](NC(=O)C(c1ccccc1)c1cccc(OCCCCNC(=O)CCNC(=O)CN2CCN(CC(=O)O)CCN(CC(=O)O)CCN(CC(=O)O)CC2)c1)C(=O)NCc1c(F)cc(O)cc1F (single isomer, unassigned) [Compound 162A] | < 0.01 µM
CCC(=O)NCCNC(=O)/N=C(/N)NCCC[C@@H](NC(=O)C(c1ccccc1)c1cccc(OCCCCNC(=O)[C@@H](CCCN)NC(=O)CCNC(=O)CN2CCN(CC(=O)O)CCN(CC(=O)O)CCN(CC(=O)O)CC2)c1)C(=O)NCc1ccc(O)cc1 (single isomer, unassigned) [Compound 147A] | < 0.01 µM
CCC(=O)NCCNC(=O)/N=C(/N)NCCC[C@@H](NC(=O)C(c1ccccc1)c1cccc(NCCCNC(=O)CCOCCNC(=O)CN2CCN(CC(=O)O)CCN(CC(=O)O)CCN(CC(=O)O)CC2)c1)C(=O)NCc1ccc(O)cc1 (single isomer, unassigned) [Compound 121A] | < 0.01 µM

Source: patent US20240226343A1, “NEUROPEPTIDE Y1 RECEPTOR (NPY1R) TARGETED THERAPEUTICS AND USES THEREOF” (RADIONETICS ONCOLOGY, INC., priority 2022, published 2024)
